Experimental data as given in patent US20250034210A1, “DLL3 TARGETING PEPTIDES AND CONSTRUCTS THEREOF” (MARIANA ONCOLOGY INC., priority 2023, published 2025).
*1 amine or outer side, *2 acyl side, *3 side chain or, on linkers, in order; H or OH if unused. Where a SMILES comes first, the peptide text is derived from it. Bridges are numbered along the chain shown (N, C = ends). [ ]: non-standard residue; d: D form. The star is where a group is joined. ξ: configuration not given here. X2 = O=C(O)CN1CCN(CC(=O)O)CCN(CC(=O)NCCCOCCOCCOCCCN*)CCN(CC(=O)O)CC1; DOTA = O=C(O)CN1CCN(CC(=O)O)CCN(CC(=O)*)CCN(CC(=O)O)CC1; PEG8 = NCCOCCOCCOCCOCCOCCOCCOCCOCCC(=O)O; X1 = O=C(C[C@H]1CC[C@H](N[*:1])CC1)[*:2]; Suc = O=C(CCC(=O)[*:2])[*:1]; ξP = O=C(O)C1CCCN1; Sar = CNCC(=O)O

What follows are compounds tested against T1, human DLL3 (Homo sapiens, UniProt Q9NYJ7) (assay: Affinity determination by Surface Plasmon Resonance (SPR), biotinylated human DLL3 immobilized on streptavidin sensor chip). Settings: 25° C., Biacore, 1:1 binding model.
T1 construct: biotin (biotinylated)
T1 sequence (Q9NYJ7 27-618): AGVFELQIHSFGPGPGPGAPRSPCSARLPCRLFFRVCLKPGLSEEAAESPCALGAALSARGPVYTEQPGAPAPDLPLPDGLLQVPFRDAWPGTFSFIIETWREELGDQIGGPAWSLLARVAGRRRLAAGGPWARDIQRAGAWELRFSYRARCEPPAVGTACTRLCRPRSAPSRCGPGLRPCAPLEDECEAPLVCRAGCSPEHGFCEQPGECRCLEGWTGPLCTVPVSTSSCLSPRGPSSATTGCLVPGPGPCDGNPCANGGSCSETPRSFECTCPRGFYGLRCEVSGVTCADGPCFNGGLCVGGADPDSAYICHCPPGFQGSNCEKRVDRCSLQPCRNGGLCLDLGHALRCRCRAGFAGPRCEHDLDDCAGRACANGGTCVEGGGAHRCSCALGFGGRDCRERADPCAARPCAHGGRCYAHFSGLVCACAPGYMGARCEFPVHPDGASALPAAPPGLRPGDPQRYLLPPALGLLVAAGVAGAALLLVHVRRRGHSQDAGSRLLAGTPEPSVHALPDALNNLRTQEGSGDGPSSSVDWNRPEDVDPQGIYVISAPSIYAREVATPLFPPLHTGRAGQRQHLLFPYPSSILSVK
Experimental: Affinity Determination by Surface Plasmon Resonance (SPR). SPR studies were performed on the compounds disclosed herein using the following protocol.
The binding affinity and binding kinetic parameters at 25° C. were determined using Biacore S200 or biacore 8K instrument. Biotinylated target ligand human DLL3 was immobilized on a streptavidin sensor chip. A reference surface was set up for nonspecific binding and refractive index changes. For analysis of the kinetics of interactions, varying concentrations of samples were injected at a flow rate of 100 μL/min using running buffer containing 20 mM phosphate buffer with 2.7 mM KCl, 137 mM NaCl, 0.05% Surfactant P20 and 2% DMSO. Sensorgram curves were fitted with 1:1 binding model, and affinity and kinetic parameters were obtained using Biacore Insight evaluation 4.0. software.

| Compound | Kd |
| --- | --- |
| CC[C@H](C)[C@H](NC(=O)[C@@H](NC(=O)[C@H](Cc1c[nH]c2ccccc12)NC(=O)CN1CCN(CC(=O)O)CCN(CC(=O)O)CCN(CC(=O)O)CC1)[C@@H](C)O)C(=O)N[C@H]1CSSC[C@@H](C(=O)N[C@@H](Cc2c[nH]c3ccccc23)C(=O)N2CCC[C@H]2C(N)=O)NC(=O)[C@H](CC(=O)O)NC(=O)[C@H](Cc2cnc[nH]2)NC(=O)[C@H](Cc2c[nH]c3ccccc23)NC(=O)[C@H](CC(N)=O)NC(=O)[C@H](CC(N)=O)NC1=O [compound 17, DOTA-W-T-I-C(3)-N-N-W-H-D-C(3)-W-P-CONH2] ({DOTA}-WTICNNWHDCWP-NH2; disulfide 4-10) | 10 to 100 nM |
| CC[C@H](C)[C@H](NC(=O)[C@@H](NC(=O)[C@H](Cc1c[nH]c2ccccc12)NC(=O)C[C@H]1CC[C@H](NC(=O)CN2CCN(CC(=O)O)CCN(CC(=O)O)CCN(CC(=O)O)CC2)CC1)[C@@H](C)O)C(=O)N[C@H]1CSSC[C@@H](C(=O)N[C@@H](Cc2c[nH]c3ccccc23)C(=O)N2CCC[C@H]2C(N)=O)NC(=O)[C@H](CC(=O)O)NC(=O)[C@H](Cc2cnc[nH]2)NC(=O)[C@H](Cc2c[nH]c3ccccc23)NC(=O)[C@H](CC(N)=O)NC(=O)[C@H](CC(N)=O)NC1=O [compound 19, DOTA-CyHex-W-T-I-C(3)-N-N-W-H-D-C(3)-W-P-CONH2] ({DOTA}-[X1]WTICNNWHDCWP-NH2; disulfide 5-11) | 10 to 100 nM |
| CC[C@H](C)[C@H](NC(=O)[C@@H](NC(=O)[C@H](Cc1c[nH]c2ccccc12)NC(=O)CCOCCOCCOCCOCCOCCOCCOCCOCCNC(=O)CN1CCN(CC(=O)O)CCN(CC(=O)O)CCN(CC(=O)O)CC1)[C@@H](C)O)C(=O)N[C@H]1CSSC[C@@H](C(=O)N[C@@H](Cc2c[nH]c3ccccc23)C(=O)N2CCC[C@H]2C(N)=O)NC(=O)[C@H](CC(=O)O)NC(=O)[C@H](Cc2cnc[nH]2)NC(=O)[C@H](Cc2c[nH]c3ccccc23)NC(=O)[C@H](CC(N)=O)NC(=O)[C@H](CC(N)=O)NC1=O [compound 20, DOTA-PEG8-W-T-I-C(3)-N-N-W-H-D-C(3)-W-P-CONH2] ({DOTA-PEG8}-WTICNNWHDCWP-NH2; disulfide 4-10) | 10 to 100 nM |
| CC[C@H](C)[C@H](NC(=O)[C@@H](NC(=O)[C@H](Cc1c[nH]c2ccccc12)NC(=O)CNC(=O)CNC(=O)CCC(=O)NCCCOCCOCCOCCCNC(=O)CN1CCN(CC(=O)O)CCN(CC(=O)O)CCN(CC(=O)O)CC1)[C@@H](C)O)C(=O)N[C@H]1CSSC[C@@H](C(=O)N[C@@H](Cc2c[nH]c3ccccc23)C(=O)N2CCC[C@H]2C(N)=O)NC(=O)[C@H](CC(=O)O)NC(=O)[C@H](Cc2c[nH]cn2)NC(=O)[C@H](Cc2c[nH]c3ccccc23)NC(=O)[C@H](CC(N)=O)NC(=O)[C@H](CC(N)=O)NC1=O [compound 21] ({X2-Suc}-GGWTICNNWHDCWP-NH2; disulfide 6-12) | 1 to 10 nM |
| CC[C@H](C)[C@H](NC(=O)[C@@H](NC(=O)[C@H](Cc1c[nH]c2ccccc12)NC(=O)CN(C)C(=O)CN(C)C(=O)CN(C)C(=O)CN(C)C(=O)CN(C)C(=O)CN1CCN(CC(=O)O)CCN(CC(=O)O)CCN(CC(=O)O)CC1)[C@@H](C)O)C(=O)N[C@H]1CSSC[C@@H](C(=O)N[C@@H](Cc2c[nH]c3ccccc23)C(=O)N2CCCC2C(N)=O)NC(=O)[C@H](CC(=O)O)NC(=O)[C@H](Cc2cnc[nH]2)NC(=O)[C@H](Cc2c[nH]c3ccccc23)NC(=O)[C@H](CC(N)=O)NC(=O)[C@H](CC(N)=O)NC1=O (stereo partly drawn) [compound 22, DOTA-(Sar)5-W-T-I-C(3)-N-N-W-H-D-C(3)-W-P-CONH2] ({DOTA}-[Sar][Sar][Sar][Sar][Sar]WTICNNWHDCW[ξP]-NH2; disulfide 9-15) | 1 to 10 nM |
